Several values for one entry are separate records, joined by “and”; a condition that tells them apart may be missing. Identical values can stand only once. Like-named read-outs stand apart in the source and are kept apart here.
Legend:
CYP3A4 [1] = molecular target: T1, CYP3A4 (Homo sapiens, UniProt P08684); conditions: previously reported analogues; read-out: Ks; cited from earlier work
T1 construct: The full-length protein was used for assays and the truncated form was used for crystallization; made in house
Target sequence in this assay (P08684 whole entry, the tested form may be a part): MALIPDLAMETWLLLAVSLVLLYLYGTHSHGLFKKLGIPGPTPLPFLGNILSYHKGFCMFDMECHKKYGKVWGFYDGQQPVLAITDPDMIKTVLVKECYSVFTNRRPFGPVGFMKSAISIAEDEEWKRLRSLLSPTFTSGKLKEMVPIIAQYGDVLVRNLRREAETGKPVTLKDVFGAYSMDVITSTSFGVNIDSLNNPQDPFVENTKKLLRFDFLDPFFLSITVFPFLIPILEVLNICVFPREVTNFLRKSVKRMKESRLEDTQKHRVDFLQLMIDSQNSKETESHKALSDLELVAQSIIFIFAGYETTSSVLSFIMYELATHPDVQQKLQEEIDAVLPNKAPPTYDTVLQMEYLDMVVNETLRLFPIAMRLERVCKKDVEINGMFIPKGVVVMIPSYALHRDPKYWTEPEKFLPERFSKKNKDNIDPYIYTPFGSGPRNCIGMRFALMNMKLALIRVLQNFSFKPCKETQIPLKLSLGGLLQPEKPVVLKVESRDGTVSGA

CYP3A4 [2] = molecular target: T1, CYP3A4; conditions: BFC debenzylation activity, same method as in this study; previously reported analogues; cited from earlier work
Target sequence in this assay (P08684 2-503): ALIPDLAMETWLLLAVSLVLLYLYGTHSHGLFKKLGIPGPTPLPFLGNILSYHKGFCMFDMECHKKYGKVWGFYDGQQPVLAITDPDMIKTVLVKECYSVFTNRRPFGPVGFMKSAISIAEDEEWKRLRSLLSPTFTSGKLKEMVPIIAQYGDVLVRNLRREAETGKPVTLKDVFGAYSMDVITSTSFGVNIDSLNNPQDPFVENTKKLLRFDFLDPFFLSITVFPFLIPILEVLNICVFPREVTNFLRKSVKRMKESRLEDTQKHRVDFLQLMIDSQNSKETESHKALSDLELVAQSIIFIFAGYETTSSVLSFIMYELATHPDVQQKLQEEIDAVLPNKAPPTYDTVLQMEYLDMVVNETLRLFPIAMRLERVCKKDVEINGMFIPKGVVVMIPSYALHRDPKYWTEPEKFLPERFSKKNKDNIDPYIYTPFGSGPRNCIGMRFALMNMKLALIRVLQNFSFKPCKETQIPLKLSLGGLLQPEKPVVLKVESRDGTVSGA

CYP3A4 [3] = molecular target: T1, CYP3A4; assay: Stopped-flow kinetics of ligand binding; conditions: for Percentage of the absorbance change taking place during the fast kinetic phase: ligand-binding reaction; for kfast: rate constant for the fast kinetic phase of the ligand-binding reaction
Description: Kinetics of Ligand Binding—The kinetics of ligand binding to CYP3A4 were measured at 427 nm in an SX.18MV stopped-flow apparatus (Applied Photophysics, UK), as previously described.
Target sequence in this assay (P08684 whole entry, the tested form may be a part): as the sequence (P08684 whole entry, the tested form may be a part) above

CYP3A4 [4] = molecular target: T1, CYP3A4; assay: H2O2-dependent heme depletion (heme bleaching) assay; conditions: for Heme Destroyed: 10 mM H2O2, 2 h, relative to ligand-free CYP3A4 = 100%; for kH2O2: rate constant for the H2O2-dependent heme-bleaching reaction, 10 mM H2O2, 16 μM inhibitor
Description: H2O2-dependent heme depletion assay—Heme bleaching in ligand-free and inhibitor-bound CYP3A4 (1.6 μM) was monitored at 23 °C in 0.1 M phosphate buffer, pH 7.4. After 10 min of preincubation of CYP3A4 with 16 μM inhibitors, heme decay was initiated by the addition of 10 mM H2O2 (final concentration) and monitored at 420 nm for 2 h. The percentage of heme destroyed was calculated relative to that in ligand-free CYP3A4, considered as 100% decay.
Target sequence in this assay (P08684 whole entry, the tested form may be a part): as above

CYP3A4 [5] = molecular target: T1, CYP3A4; assay: Inhibitory potency for the BFC O-debenzylase activity in a soluble reconstituted system; format: biochemical; conditions: for IC50: BFC debenzylase activity, soluble reconstituted system with cytochrome P450 reductase
Description: Inhibitory Potency Assays—The inhibitory potency for the BFC O-debenzylase activity of CYP3A4 was evaluated fluorometrically in a soluble reconstituted system, and the IC50 values were derived from the [% activity] vs. [inhibitor] plots, as described in detail elsewhere.
Target sequence in this assay (P08684 2-503): as the sequence (P08684 2-503) above

recombinant CYP3A5 = recombinant CYP3A5 (Homo sapiens, UniProt P20815); assay: Inhibitory potency against recombinant CYP3A5; format: biochemical; conditions: read-out: IC50 estimates
recombinant CYP3A5, sequence (P20815 whole entry): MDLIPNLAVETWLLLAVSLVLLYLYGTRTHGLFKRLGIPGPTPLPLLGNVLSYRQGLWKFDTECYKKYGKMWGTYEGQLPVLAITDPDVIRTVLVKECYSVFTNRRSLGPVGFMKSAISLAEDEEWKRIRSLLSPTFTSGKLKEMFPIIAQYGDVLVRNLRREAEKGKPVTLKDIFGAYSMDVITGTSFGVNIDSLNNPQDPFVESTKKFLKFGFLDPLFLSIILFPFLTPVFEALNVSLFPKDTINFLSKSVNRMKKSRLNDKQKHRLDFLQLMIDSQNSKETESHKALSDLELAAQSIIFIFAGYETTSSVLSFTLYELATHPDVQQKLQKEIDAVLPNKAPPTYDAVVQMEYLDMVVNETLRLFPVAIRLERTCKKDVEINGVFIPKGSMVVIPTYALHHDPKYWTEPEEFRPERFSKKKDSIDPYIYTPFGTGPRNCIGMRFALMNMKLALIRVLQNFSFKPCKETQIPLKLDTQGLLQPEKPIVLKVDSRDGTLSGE
Source text: Thus, one optimization strategy would be the R3 enlargement and branching. […] Our analogues lack the backbone hydroxyl as well, but contain much smaller/chemically simpler end-groups.

CYP3A4 [6] = molecular target: T1, CYP3A4; assay: Spectral binding titrations (equilibrium ligand binding, type II spectral change); conditions: for Kd: 23 °C, 0.1 M phosphate pH 7.4, quadratic fits to titration plots, read-out: Ks (spectral dissociation constant); for λmax Ferric: ferric ligand-bound CYP3A4; for λmax Ferrous: ferrous ligand-bound CYP3A4; for ΔAmax: maximal absorbance change (peak-to-trough in difference spectrum) relative to that induced by ritonavir; for A421/417: ratio between absorption maxima of ferric ligand-bound and ligand-free CYP3A4
Description: Spectral Binding Titrations—Equilibrium ligand binding to CYP3A4 was monitored using a Cary 300 spectrophotometer at 23 °C in 0.1 M phosphate buffer, pH 7.4, supplemented with 20% glycerol and 1 mM dithiothreitol. Inhibitors were dissolved in dimethyl sulfoxide (DMSO) and added to a 2 μM protein solution in small aliquots, with the final solvent concentration of <2%. The spectral dissociation constant (Ks) was determined from quadratic fits to the titration plots.
Target sequence in this assay (P08684 whole entry, the tested form may be a part): as the sequence (P08684 whole entry, the tested form may be a part) above

CYP3A4 [7] = molecular target: T1, CYP3A4; assay: Thermal denaturation (ligand-dependent change in melting temperature); format: binding; conditions: purified CYP3A4 protein solution, pH 7.4, ligand-dependent change in melting temperature of CYP3A4, 1 μM protein, 20 μM ligand
Description: Thermal Denaturation—Melting curves were recorded in 0.1 M phosphate buffer, pH 7.4, using a Cary 300 spectrophotometer. Protein (1 μM) was mixed with a ligand (20 μM) and incubated for 15 min at 23 °C. Protein denaturation was monitored at 260 nm using a 0.2 °C measurement step, 0.9 °C/min ramp rate, and 50–75 °C temperature range. The denaturation midpoint (melting temperature; Tm) was determined from non-linear fittings to the melting curve, as described earlier.
Target sequence in this assay (P08684 whole entry, the tested form may be a part): as above

CYP3A4 [8] = molecular target: T1, CYP3A4; conditions: previously reported analogues; cited from earlier work
Target sequence in this assay (P08684 whole entry, the tested form may be a part): as above

| Percentage of the absorbance change taking place during the fast kinetic phase (CYP3A4 [3]) [%] | kfast (CYP3A4 [3]) | Heme Destroyed (CYP3A4 [4]) | kH2O2 (CYP3A4 [4]) | IC50 (CYP3A4 [5]) [nM] | Kd (CYP3A4 [6]; 2 μM protein) [nM] | λmax Ferric (CYP3A4 [6]) [nm] | λmax Ferrous (CYP3A4 [6]) [nm] | ΔAmax (CYP3A4 [6]) [%] | A421/417 (CYP3A4 [6]) | ΔTm at 15 min, 20 μM (CYP3A4 [7]) [°C] | SMILES | further results |
| --- | --- | --- | --- | --- | --- | --- | --- | --- | --- | --- | --- | --- |
|  |  | 24 ± 2% | 0.32 ± 0.03 10^3 × min^−1 | 210 ± 30 |  |  |  |  |  |  | O=C(CCc1cccnc1)N[C@H](CS[C@@H](Cc1ccccc1)C(=O)NCCc1cccnc1)Cc1ccccc1 [Compound 8c] | IC50 (recombinant CYP3A5): 180 to 200 nM |
| 31 | 18.2 ± 1.8 s⁻¹ | 22% and 22 ± 2% | 0.31 ± 0.03 10^3 × min^−1 | 160 ± 20 | 14 ± 2 | 423 | 443 | 126 | 1.06 | 5 | CC(C)(C)OC(=O)N[C@H](CS[C@H](Cc1ccccc1)C(=O)NCCc1ccncc1)Cc1ccccc1 [Compound 5b] | IC50 (recombinant CYP3A5): 180 to 200 nM |
| 24 | 5.6 s⁻¹ and 5.6 ± 0.6 s⁻¹ | 32 ± 3% | 0.44 ± 0.06 10^3 × min^−1 | 820 ± 90 | 53 ± 9 | 421 | 443 | 109 | 1.03 | 4.2 | O=C(CCc1cccnc1)N[C@H](CS[C@H](Cc1ccccc1)C(=O)NCCc1cccnc1)Cc1ccccc1 [Compound 8b] | increase in IC50 relative to 4f (CYP3A4 [5]; relative to 4f): ~ 20%; increase in Ks relative to 4f (CYP3A4 [6]; relative to 4f): ~ 20% |
| 26 | 10.3 s⁻¹ and 10.3 ± 1.2 s⁻¹ | 39 ± 4% | 0.66 ± 0.10 10^3 × min^−1 | 600 ± 40 | 120 ± 10 | 421 | 443 | 96 | 1.03 | 3.6 | O=C(Cc1cccnc1)N[C@H](CS[C@H](Cc1ccccc1)C(=O)NCc1cccnc1)Cc1ccccc1 [Compound 8a] |  |
| 34 | 22.5 ± 3.1 s⁻¹ | 22% and 22 ± 3% | 0.31 ± 0.04 10^3 × min^−1 | 310 ± 30 | 34 ± 5 | 422 | 443 | 105 | 1.07 | 5.2 | CC(C)(C)OC(=O)N[C@H](CS[C@H](Cc1ccccc1)C(=O)NCc1ccncc1)Cc1ccccc1 [Compound 5a] | fold improvement in inhibitory potency relative to 4f (CYP3A4 [5]; relative to 4f): 1.3 fold; fold improvement in binding affinity relative to 4f (CYP3A4 [6]; relative to 4f): 2.2 fold |
| 29 | 13.7 ± 1.5 s⁻¹ | 19 ± 3% | 0.24 ± 0.03 10^3 × min^−1 |  | 9 ± 1 | 422 | 443 | 110 | 1.10 | 7.3 | O=C(CNC(=O)c1cccnc1)N[C@H](CS[C@H](Cc1ccccc1)C(=O)NCCCc1cccnc1)Cc1ccccc1 [Compound 10b] | IC50 (CYP3A4 [5]; human, probe BFC (O-debenzylation)): 210 ± 20 nM; Kd (CYP3A4 [6]; human, purified CYP3A4 protein solution, pH 7.4, 2 μM protein): 8 to 9 nM |
| 30 | 15.4 ± 1.8 s⁻¹ | 13 ± 2% | 0.17 ± 0.02 10^3 × min^−1 | 150 ± 20 | 8 ± 1 | 422 | 444 | 111 | 1.11 | 7.2 | O=C(N[C@H](CS[C@H](Cc1ccccc1)C(=O)NCCCc1cccnc1)Cc1ccccc1)c1cccnc1 [Compound 10a] | improvement in heme protection relative to 3a (CYP3A4 [4]; relative to the Boc-containing 3a): 5%; IC50 (recombinant CYP3A5): 180 to 200 nM |

Further lines, the molecule ahead of its results:

| SMILES | Percentage of the absorbance change taking place during the fast kinetic phase (CYP3A4 [3]) [%] | kfast (CYP3A4 [3]) | Heme Destroyed (CYP3A4 [4]) | kH2O2 (CYP3A4 [4]) | IC50 (CYP3A4 [5]) [nM] | Kd (CYP3A4 [6]; 2 μM protein) [nM] | λmax Ferric (CYP3A4 [6]) [nm] | λmax Ferrous (CYP3A4 [6]) [nm] | ΔAmax (CYP3A4 [6]) [%] | A421/417 (CYP3A4 [6]) | ΔTm at 15 min, 20 μM (CYP3A4 [7]) [°C] | further results |
| --- | --- | --- | --- | --- | --- | --- | --- | --- | --- | --- | --- | --- |
| CC(C)(C)OC(=O)N[C@H](CS[C@H](Cc1ccccc1)C(=O)NCc1cccnc1)Cc1ccccc1 [Compound 4b, reference compound] | 31 | 13.2 ± 1.8 s⁻¹ | 39 ± 5% | 0.64 ± 0.07 10^3 × min^−1 |  |  |  |  |  |  |  | Kd (CYP3A4 [1]): 63 nM; IC50 (CYP3A4 [2]): 1190 nM |
| CC(C)(C)OC(=O)N[C@H](CS[C@@H](Cc1ccccc1)C(=O)NCCc1cccnc1)Cc1ccccc1 [Compound 4h, reference compound] | 28 | 13.8 ± 2.0 s⁻¹ | 22 ± 3% | 0.32 ± 0.03 10^3 × min^−1 |  |  |  |  |  |  |  |  |
| CC(C)(C)OC(=O)N[C@H](CS[C@H](Cc1ccccc1)C(=O)NCC(=O)Nc1cccnc1)Cc1ccccc1 [Compound 4] | 27 | 13.8 s⁻¹ and 13.8 ± 1.5 s⁻¹ | 44 ± 5% | 0.70 ± 0.08 10^3 × min^−1 | 1600 ± 200 | 1360 ± 120 | 421 |  | 98 | 0.99 | 1.9 | fold increase in IC50 relative to 3a (CYP3A4 [5]; BFC O-debenzylase activity, relative to 3a): 10 fold; fold increase in Ks relative to 3a (CYP3A4 [6]; relative to 3a): 100 fold |
| CC(C)(C)OC(=O)N[C@H](CS[C@H](Cc1ccccc1)C(=O)NCCCc1cccnc1)Cc1ccccc1 [Compound 3a, reference compound] | 36 | 12.5 ± 1.3 s⁻¹ | 18% and 18 ± 2% | 0.21 ± 0.03 10^3 × min^−1 |  |  |  |  |  |  |  | ΔTm (CYP3A4 [8]): 8.1 °C; IC50 (CYP3A4 [2]): 160 nM |
| CC(C)(C)OC(=O)N[C@H](CS[C@H](Cc1ccccc1)C(=O)NCCc1cccnc1)Cc1ccccc1 [Compound 4f, reference compound] | 32 | 11.4 ± 1.4 s⁻¹ | 37% and 37 ± 4% | 0.60 ± 0.08 10^3 × min^−1 |  |  |  |  |  |  |  | ΔTm (CYP3A4 [8]): 4.2 °C |

— PMC9266530 (International Journal of Molecular Sciences, 2022)
